# Assay results reported in patent publication US20020082241A1, “Adenosine as antithrombotic” (priority 2000, published 2002).
# Tests used:
# [1] = biological target: T1, platelet membrane receptor protein gpIIb/IIIa (Homo sapiens, UniProt P05106+P08514); assay: gpIIb/IIIa binding assay with compound spotted on plate and labeled gpIIb/IIIa; conditions: concentration of the compound below 10 μg/ml; serial dilution 0 to 50 μg/ml; FIG. 5
# T1 construct: platelet membrane receptor protein gpIIb/IIIa was purified from platelets; from tissue; host or cells: platelets
# Procedure: For conducting the target-binding assay, platelet membrane receptor protein gpIIb/IIIa was purified from platelets, and its purity was determined by SDS-PAGE and silver staining. The purified protein gpIIb/IIIa was labeled with biotin as described in the conventional protocol. The 120 collected samples were individually coated onto a 384-well plastic plate. The biotin-labeled protein gpIIb/IIIa was added to the sample-coated plastic plate and was incubated with the coated samples at room temperature for 30 minutes. Each well was then washed with TBST buffer for 3 times, to which the extravidin-conjugated alkaline phosphatase was added, and each well was further incubated for 30 minutes. The previous washing step was repeated and each well was then colored with substrate p-nitrophenyl phosphate. The absorption for each well at a wavelength of 405 nm was determined by an automatic ELISA reader (Dynax). […] The compound “adenosine” obtained from Example 4 was used as a standard for the characterization of each batch preparation of the compound. The compound, when purified, was collected, dried and used to verify its gpIIb/IIIa binding capacity. For conducting the binding assay, the compound was formulated into an aqueous solution, and a serial dilution for forming a final concentration of 0 to 50 μg/ml was made. […]
# [2] = tested on: platelet aggregation; assay: ADP-activated platelet aggregation assay; format: cell-based
# Procedure: To assay the platelet aggregation-inhibiting activity of the compound, a regular ADP-activated platelet aggregation assay was performed. The reagents used for conducting the assay were purchased from Sigma. […] The maximal inhibition activity was about 85%, which occurs at the concentration of the compound from 10 to 15 μg/ml blood.
# [3] = tested on: thrombus formation in mesenteric vein; assay: thrombus formation in vivo in mesenteric vein of rats (electrical stimulation); conditions: rat
# Procedure: The thrombus formation in vivo in mesenteric vein of rats was used for evaluating an effect of the compound on the inhibition of venous thrombosis. In brief, groups of 3 male Wistar-derived rats, each weighing 60±10 gm, were used for each dosage test. The rats were anesthetized with phenobarbital sodium (50 mg/kg, i.p.), and paralyzed with succinylcholine chloride (2 mg/rat, i.p.). A mesenteric loop and vein was then exposed and mounted on a constructed platform. The exposed area was superfused with a normal saline at 37° C. except during electrode placement and stimulation. With the aid of a dissecting microscope and micromanipulator, a monopolar platinum electrode was brought into and contact with the vein. […] The relative venous occlusion (a measured degree of thrombus formation) was determined as a percentage of venous diameter (0.36 to 0.3 8 mm) and was recorded at 10 seconds (baseline control score) and at 1 minute interval for 20 minutes. […] In the vehicle-treated animals, the 20-minute interval recorded values were averaged, which attains a value ranging from 45 to 55% of the interval vein diameter. Consequently, the antithrombic activity of the compound was calculated as % of inhibition relative to the vehicle-treated control animals. […]
# [4] = biological target: T2, gpIIb/IIIa (binding of fibrinogen) (Homo sapiens, UniProt P05106+P08514); assay: competitive ELISA for inhibition of the binding of fibrinogen to gpIIb/IIIa; conditions: samples 5-60 μg/ml; biotin-labeled fibrinogen 1.5 μg/ml; 37° C.; OD value; FIG. 8
# T2 construct: The gpIIb/IIIa purified from platelet was coated on flat wells of a plastic 96-well plate; from tissue; host or cells: platelets
# Procedure: A competitive ELISA assay for analyzing that the binding of fibrinogen to gpIIb/IIIa is inhibited was performed for comparative analysis, where the compound, commercial adenosine (a product from Sigma, Cat. A-9251, Lot. 18H0295) and ReoPro® (abciximab) (10 mg/ml; produced by Eli Lilly for laboratory use only, Lot. 97F03, which is a monoclonal antibody and an antagonist against gpIIb/IIIa) were tested. The gpIIb/IIIa purified from platelet was coated on flat wells of a plastic 96-well plate. Samples of each of the test compounds were prepared in a concentration in a range of 5-60 μg/ml. A solution of biotin-labeled fibrinogen was prepared in a concentration of 1.5 μg/ml. Prior to addition to the wells, each of the samples were individually mixed with an equal volume of the biotinylated fibrinogen. The competitive binding reaction in the plate was performed at 37° C. for 2 hours. After another 2 hours for incubation, strepavidin-conjugated alkaline phosphatase was added to each well of the plate. A substrate solution containing p-nitrophenyl phosphate was then added to each well for coloring by a conventional way. The capability of each tested compound in the inhibition of the binding of fibrinogen to gpIIb/IIIa was measured and recorded as OD value.
# [5] = acute toxicity in adult rats, single intravenous dose; format: in vivo; conditions: rat, single i.v. dose, up to approximately 70 mg/kg (69.55±5.65 mg/kg), necropsy Day 8
# Procedure: The potential acute toxicity of the compound in adult rats when administered intravenously as a single dose was examined. Twenty animals were divided into five treatment groups of two males and two females each as follows: Group 1: vehicle control; Group 2: 1 mg of the compound/kg body weight of animal; Group 3: 10 mg of the compound/kg body weight of animal; Group 4: 50 mg of the compound/kg body weight of animal; and Group 5: 100 mg of the compound/kg body weight of animal. The tested article was reconstituted with 0.9% sodium chloride injection to provide 0.64±0.05 mg/kg (Group 2), 6.89±1.13 mg/kg (Group 3), 35.02±5.02 mg/kg (Group 4) and 69.55±5.65 mg/kg (Group 5). Animals were dosed on Day 1, and scheduled necropsies conducted on Day 8 included gross examination of organs and tissues, organ weight measurements, and tissue collection for potential histopathological examination. It was found in the compound treatment groups that there was no change in clinical observations, serum chemistry, hematology, gross examination, body weight and organ weight (absolute and relative) that could be attributed to the compound.
# T2 sequence (P08514 32-887 limits assumed): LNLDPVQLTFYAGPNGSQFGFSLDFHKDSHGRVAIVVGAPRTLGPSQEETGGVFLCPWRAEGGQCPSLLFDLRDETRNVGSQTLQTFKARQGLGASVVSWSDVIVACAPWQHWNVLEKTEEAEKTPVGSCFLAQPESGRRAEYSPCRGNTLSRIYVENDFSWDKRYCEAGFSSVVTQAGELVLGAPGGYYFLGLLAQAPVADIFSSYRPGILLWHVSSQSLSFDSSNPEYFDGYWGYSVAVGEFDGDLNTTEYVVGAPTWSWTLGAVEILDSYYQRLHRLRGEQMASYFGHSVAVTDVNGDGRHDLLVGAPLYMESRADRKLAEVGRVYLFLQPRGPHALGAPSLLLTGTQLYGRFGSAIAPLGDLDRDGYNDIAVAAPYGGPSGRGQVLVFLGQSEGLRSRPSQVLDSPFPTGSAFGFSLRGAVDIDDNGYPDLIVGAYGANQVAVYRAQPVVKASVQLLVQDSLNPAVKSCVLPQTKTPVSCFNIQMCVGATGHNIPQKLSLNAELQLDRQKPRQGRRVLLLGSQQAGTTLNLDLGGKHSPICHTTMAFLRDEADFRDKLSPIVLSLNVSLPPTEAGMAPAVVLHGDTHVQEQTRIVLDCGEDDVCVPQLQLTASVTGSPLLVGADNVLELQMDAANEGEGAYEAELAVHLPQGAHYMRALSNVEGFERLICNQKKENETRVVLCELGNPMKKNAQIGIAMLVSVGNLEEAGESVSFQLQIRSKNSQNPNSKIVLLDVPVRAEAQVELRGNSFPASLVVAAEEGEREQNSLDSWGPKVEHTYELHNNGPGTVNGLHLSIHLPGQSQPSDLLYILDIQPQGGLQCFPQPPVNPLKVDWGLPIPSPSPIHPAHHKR
# T2 sequence (P08514 891-1039 limits assumed): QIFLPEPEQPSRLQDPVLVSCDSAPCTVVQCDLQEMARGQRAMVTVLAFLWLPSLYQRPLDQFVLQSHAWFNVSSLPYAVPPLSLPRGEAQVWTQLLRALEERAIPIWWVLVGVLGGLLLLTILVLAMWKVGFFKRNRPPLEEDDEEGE
# T2 sequence (P05106 27-788): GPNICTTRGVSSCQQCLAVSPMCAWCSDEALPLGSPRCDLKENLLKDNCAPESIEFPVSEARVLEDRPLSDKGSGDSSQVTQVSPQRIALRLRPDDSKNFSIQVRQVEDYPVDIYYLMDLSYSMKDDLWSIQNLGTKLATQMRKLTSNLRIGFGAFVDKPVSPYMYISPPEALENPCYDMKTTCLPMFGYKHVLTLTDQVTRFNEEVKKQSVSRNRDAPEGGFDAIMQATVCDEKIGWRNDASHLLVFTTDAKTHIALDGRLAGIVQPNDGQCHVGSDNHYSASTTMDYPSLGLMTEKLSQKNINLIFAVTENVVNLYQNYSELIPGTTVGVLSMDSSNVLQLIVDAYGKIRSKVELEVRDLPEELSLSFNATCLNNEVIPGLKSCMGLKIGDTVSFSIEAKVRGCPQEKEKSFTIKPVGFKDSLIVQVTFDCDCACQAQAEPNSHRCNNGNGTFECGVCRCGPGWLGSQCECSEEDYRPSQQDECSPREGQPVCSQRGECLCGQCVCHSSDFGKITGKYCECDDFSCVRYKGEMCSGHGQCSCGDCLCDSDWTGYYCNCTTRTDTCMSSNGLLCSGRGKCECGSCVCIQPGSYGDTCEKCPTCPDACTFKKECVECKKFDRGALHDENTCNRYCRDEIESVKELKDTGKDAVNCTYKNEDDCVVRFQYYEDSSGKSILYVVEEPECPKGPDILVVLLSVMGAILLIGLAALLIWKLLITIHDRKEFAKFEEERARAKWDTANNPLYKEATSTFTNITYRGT
# T1 sequence (P08514 32-887 limits assumed): as the sequence (P08514 32-887 limits assumed) above
# T1 sequence (P08514 891-1039 limits assumed): as the sequence (P08514 891-1039 limits assumed) above
# T1 sequence (P05106 27-788): as the sequence (P05106 27-788) above
compound,measurement,setting,value
"Nc1ncnc2c1ncn2[C@@H]1O[C@H](CO)[C@@H](O)[C@H]1O [the compound, adenosine]","binding to gpIIb/IIIa, % of the maximal binding",[1],80%
same,inhibition at 17.4 µg/mL,"[2]; Platelet, 17.4 μg/ml, occurring from the 14th to 16th minutes, FIG. 6B, read-out: maximal inhibition activity on platelet aggregation (time course)",~85%
same,maximal inhibition activity on platelet aggregation (dose response),"[2]; at concentration from 10 to 15 μg/ml blood, FIG. 6A",about 85%
same,"antithrombic activity relative to vehicle treated group, i.v.","[3]; 400 μg/rat i.v. 5 minutes before stimulation, at 7, 11, 12, 13, 14, 15, 16, 17 and 19 minutes after electric stimulation, FIG. 7A",significance relative to the vehicle treated group
same,"antithrombic activity relative to vehicle treated group, oral","[3]; 4 mg/rat oral feeding 1 hour prior to stimulation, observed at 14, 15, 16, 17, 18 and 20 minutes, FIG. 7C",significant antithrombic activity
same,"inhibition of the binding of fibrinogen to gpIIb/IIIa, compared with ReoPro (abciximab)",[4],superior effect
same,"inhibition of the binding of fibrinogen to gpIIb/IIIa, the compound compared with commercial adenosine",[4],quite similar function
same,acute toxicity,[5],No signs of overt toxicity
same,acute toxicity,[5]; listed as adenosine,no acute toxicity
